Data from ChEMBL document CHEMBL1201862, “PubChem BioAssay data set” (2004).
Active and inactive are the calls of the source. Where a SMILES comes first, the peptide text is derived from it. The star is where a group is joined. CH2Cl = ClC*

What was measured:
[1] = inhibitors of firefly luciferase expression or activity, dose response, H4 neuroglioma cells, luminescence (AID 1990); assay type: functional, cell-based
[2] = tested on: BJ; assay: cytotoxicity toward BJ-TERT fibroblasts, dose response, cell-based, RAS-independent, luminescence (AID 1933); assay type: functional; conditions: Homo sapiens
[3] = Luminescence Cell-Based Dose Response HTS to Identify Inhibitors of 5'UTR Stem-Loop Driven Prion Protein mRNA Translation in H4 Neuroglioblastoma Cells. [Related pubchem assays: 1827 (Project Summary), 1813 (Primary HTS)]; assay type: functional
[4] = inhibitors of SNCA 5'UTR-driven reporter translation, confirmation, H4 neuroglioma cells, luminescence (AID 1988); assay type: functional, cell-based
[5] = tested on: BJ; assay: cells; assay type: functional, cell-based; conditions: Homo sapiens
[6] = microbe, parasite or virus in culture; assay type: functional; conditions: Mycobacterium tuberculosis
[7] = tested on: BJ; assay: cytotoxicity toward BJ-TERT-LT-ST fibroblasts, dose response, cell-based, RAS-independent, luminescence (AID 1935); assay type: functional; conditions: Homo sapiens;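 note: BJ fibroblasts immortalized with TERT plus LT and ST oncogenes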
[8] = cytotoxicity toward DRD oncogenic fibroblasts, dose response, cell-based, non-viral oncogenic, luminescence (AID 1934); assay type: functional; conditions: Homo sapiens
[9] = cytotoxicity in HEK-293T cells, dose response, cytotoxicity control for TCR NF-kB inhibitor project, luminescence, T-cell screen hits (AID 489026); assay type: functional, cell-based;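 note: cells exposed to compound about 14 hours before the viability readout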
[10] = tested on: BJ; assay: cytotoxicity toward Ras-transformed BJeLR fibroblasts, dose response, cell-based, alamar blue fluorescence, cherrypicked samples (AID 2631); assay type: functional; conditions: Homo sapiens;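 note: confirmatory dose-response assay in RAS-dependent BJ fibroblasts engineered with TERT, LT and ST, with cytotoxicity read by fluorescence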
[11] = Shn3 3'UTR reporter inhibitors, dose response, cell-based, Clone20 osteoblasts, firefly luciferase, cherry-picked (AID 624132); assay type: functional;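 note: firefly luciferase luminescence from reporter carrying the Shn3 3'UTR in osteoblasts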
[12] = HepG2 cell cytotoxicity, dose response, cytotoxicity control for Shn3 inhibitor project, CellTiter-Glo, cherry-picked (AID 624134); assay type: functional, cell-based
[13] = control 3'UTR Renilla luciferase suppression, dose response, counter-screen for Shn3 inhibitor project, cell-based, Clone20-Shn3RL, cherry-picked (AID 624133); assay type: functional
[14] = target: T1, Caspase-3 (Homo sapiens, UniProt P42574); assay type: functional;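 note: Dose-response selectivity test against caspase-3 for candidate inhibitors of sentrin-specific proteases (SENPs)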
T1 sequence (P42574 whole entry): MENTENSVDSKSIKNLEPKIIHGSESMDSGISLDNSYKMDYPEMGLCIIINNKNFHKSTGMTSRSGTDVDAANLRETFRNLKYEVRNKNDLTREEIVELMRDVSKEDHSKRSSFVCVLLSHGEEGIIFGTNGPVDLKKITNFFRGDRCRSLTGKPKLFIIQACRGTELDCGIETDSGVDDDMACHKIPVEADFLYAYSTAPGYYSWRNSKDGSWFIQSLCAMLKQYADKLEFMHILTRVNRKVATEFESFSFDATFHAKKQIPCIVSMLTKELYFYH

[15] = target: T2, Sentrin-specific protease 7 (Homo sapiens, UniProt Q9BQF6); assay type: functional;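 note: Luminescence-based dose-response confirmation of ultra-high-throughput screening hits, measuring inhibition of SENP7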
T2 sequence (Q9BQF6 whole entry): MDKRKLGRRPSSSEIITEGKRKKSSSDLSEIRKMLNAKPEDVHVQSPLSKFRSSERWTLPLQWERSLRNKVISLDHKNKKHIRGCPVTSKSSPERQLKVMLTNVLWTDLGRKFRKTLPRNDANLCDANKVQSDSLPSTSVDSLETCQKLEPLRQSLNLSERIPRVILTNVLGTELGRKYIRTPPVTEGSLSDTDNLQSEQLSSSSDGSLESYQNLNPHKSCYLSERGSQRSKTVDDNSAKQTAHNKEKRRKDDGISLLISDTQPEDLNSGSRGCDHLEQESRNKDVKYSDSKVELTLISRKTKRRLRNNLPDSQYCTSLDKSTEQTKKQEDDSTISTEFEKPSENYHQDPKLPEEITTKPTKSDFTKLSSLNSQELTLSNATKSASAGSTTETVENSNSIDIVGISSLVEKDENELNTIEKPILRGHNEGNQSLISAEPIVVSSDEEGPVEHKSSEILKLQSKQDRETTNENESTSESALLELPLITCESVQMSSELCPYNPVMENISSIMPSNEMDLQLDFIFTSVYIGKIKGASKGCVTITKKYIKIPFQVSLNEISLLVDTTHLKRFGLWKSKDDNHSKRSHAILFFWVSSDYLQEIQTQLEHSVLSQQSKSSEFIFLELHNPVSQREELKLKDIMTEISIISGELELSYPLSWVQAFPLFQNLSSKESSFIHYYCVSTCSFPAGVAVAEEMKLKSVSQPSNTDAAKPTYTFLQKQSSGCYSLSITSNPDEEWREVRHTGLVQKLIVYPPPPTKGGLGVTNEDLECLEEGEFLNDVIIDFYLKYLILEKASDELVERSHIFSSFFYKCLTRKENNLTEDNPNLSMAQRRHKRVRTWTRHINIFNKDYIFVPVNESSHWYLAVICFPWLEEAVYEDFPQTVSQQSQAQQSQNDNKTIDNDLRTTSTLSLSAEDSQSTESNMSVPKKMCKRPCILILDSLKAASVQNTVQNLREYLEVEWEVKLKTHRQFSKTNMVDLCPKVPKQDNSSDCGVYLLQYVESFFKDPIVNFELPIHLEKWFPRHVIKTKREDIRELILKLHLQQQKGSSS

[16] = target: T3, Sentrin-specific protease 6 (Homo sapiens, UniProt Q9GZR1); assay type: functional;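 note: Luminescence-based dose-response confirmatory assay of SENP6 inhibition, following up an ultra-high-throughput screen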
T3 sequence (Q9GZR1 whole entry): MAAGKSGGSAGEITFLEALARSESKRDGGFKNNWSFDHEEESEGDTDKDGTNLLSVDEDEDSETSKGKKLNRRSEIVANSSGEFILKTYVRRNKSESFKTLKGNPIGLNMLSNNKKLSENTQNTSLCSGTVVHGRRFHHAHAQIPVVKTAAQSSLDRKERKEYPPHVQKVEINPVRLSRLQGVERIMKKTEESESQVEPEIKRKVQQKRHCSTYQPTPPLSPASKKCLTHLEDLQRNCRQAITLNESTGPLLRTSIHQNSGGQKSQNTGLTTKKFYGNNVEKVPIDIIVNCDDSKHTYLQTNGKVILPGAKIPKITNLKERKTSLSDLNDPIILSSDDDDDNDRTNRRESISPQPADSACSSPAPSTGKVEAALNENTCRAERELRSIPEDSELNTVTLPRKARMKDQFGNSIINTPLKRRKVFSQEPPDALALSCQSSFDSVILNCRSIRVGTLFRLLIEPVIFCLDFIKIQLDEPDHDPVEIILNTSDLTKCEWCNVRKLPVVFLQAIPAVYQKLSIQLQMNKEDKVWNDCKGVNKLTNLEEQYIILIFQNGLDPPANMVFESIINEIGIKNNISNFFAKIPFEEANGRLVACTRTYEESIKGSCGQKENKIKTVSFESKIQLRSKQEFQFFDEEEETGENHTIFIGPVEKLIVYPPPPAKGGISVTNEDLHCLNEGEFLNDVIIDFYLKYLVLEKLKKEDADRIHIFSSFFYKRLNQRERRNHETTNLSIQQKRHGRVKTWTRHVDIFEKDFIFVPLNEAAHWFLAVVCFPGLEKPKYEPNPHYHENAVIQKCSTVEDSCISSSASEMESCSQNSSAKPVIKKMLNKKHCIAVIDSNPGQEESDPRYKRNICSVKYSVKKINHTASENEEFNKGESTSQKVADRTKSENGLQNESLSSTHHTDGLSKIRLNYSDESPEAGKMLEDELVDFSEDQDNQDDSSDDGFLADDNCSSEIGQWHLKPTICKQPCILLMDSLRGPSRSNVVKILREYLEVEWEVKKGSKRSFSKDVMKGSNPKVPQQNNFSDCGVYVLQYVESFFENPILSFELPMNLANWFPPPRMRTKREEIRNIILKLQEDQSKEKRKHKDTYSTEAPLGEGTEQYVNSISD

[17] = target: T4, Sentrin-specific protease 8 (Homo sapiens, UniProt Q96LD8); assay type: functional;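 note: luminescence read-out of SENP8 inhibition, dose-response confirmation following an ultra-high-throughput screen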
T4 sequence (Q96LD8 whole entry): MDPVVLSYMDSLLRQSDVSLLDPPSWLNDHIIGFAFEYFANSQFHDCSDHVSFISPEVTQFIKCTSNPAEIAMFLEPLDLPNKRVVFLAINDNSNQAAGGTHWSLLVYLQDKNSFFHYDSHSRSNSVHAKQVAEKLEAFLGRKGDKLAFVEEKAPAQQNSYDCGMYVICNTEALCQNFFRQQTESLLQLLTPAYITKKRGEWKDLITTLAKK

[18] = cells; assay type: functional, cell-based
[19] = tested on: HEK293; assay: inhibitors of LMP1-driven NF-kB reporter, dose response, cell-based, HEK293, luciferase, cherry-pick (AID 588343); assay type: functional; conditions: Homo sapiens
[20] = target: T5, Latent membrane protein 1 (Human herpesvirus 4 (strain B95-8), UniProt P03230); assay: TES1-eGFP NF-kB reporter inhibition versus Tet-On dsRED, dose response, selectivity assay for LMP1 NF-kB inhibitor project, imaging, HEK293T, dual-color eGFP/dsRED, cherry-picks (AID 588398); assay type: functional, cell-based
T5 sequence (P03230 whole entry): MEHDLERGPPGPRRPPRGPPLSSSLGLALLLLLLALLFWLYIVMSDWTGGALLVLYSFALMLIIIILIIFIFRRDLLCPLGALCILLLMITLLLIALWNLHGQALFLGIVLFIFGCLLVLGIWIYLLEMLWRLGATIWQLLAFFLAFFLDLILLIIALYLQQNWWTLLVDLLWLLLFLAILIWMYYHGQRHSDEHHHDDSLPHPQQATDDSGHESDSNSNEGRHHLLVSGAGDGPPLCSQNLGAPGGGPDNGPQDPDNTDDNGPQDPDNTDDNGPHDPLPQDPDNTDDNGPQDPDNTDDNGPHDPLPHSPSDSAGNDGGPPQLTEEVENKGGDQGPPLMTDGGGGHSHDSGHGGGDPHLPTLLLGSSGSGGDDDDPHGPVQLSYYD

[21] = tested on: INS1; assay: beta cell apoptosis inhibitors, cytokine rescue, dose response, luminescence, retest (AID 449756); assay type: functional, cell-based; conditions: Rattus norvegicus;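 note: cell death triggered by IL-1 beta plus TNF-alpha plus IFN-gamma mixture; protective hits raise ATP signal compared with cytokine alone wells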
[22] = NIH-3T3 fibroblast cytotoxicity, dose response, cytotoxicity control, cell-based, fluorescence, Alamar Blue, secondary assay (AID 2327); assay type: functional;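 note: NIH-3T3 mouse fibroblasts cultured with fluconazole at 8 µg/mL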
[23] = C. albicans growth with fluconazole, confirmation, fluorescence, retest (AID 2467); assay type: functional, cell-based
[24] = cells; assay type: functional, cell-based; remark: listed apart in the source
[25] = target: T6, Interleukin-8 (Homo sapiens, UniProt P10145); assay: Dose Response confirmation of uHTS small molecule hits for cystic fibrosis induced NFkb Inhibitors in a TNFa-induced IL8 counterscreen.; assay type: functional; conditions: read-out: IC50_Mean
T6 sequence (P10145 whole entry): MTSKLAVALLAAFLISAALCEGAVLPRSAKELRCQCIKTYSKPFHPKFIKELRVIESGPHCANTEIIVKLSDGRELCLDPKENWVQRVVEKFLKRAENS

[26] = target: T6, Interleukin-8; assay: Dose Response confirmation of uHTS small molecule hits for cystic fibrosis induced NFkb Inhibitors in a PAF-induced IL8 counterscreen.; assay type: functional; conditions: read-out: IC50_Mean

With COc1cc(C2c3cc4c(cc3C(OC3OC5COC(c6cccs6)OC5C(O)C3O)C3COC(=O)C23)OCO4)cc(OC)c1O (configuration not stated) the EC50 [1] was 5.15 µM (active), the EC50 [2] was 6.51 µM (inconclusive) and the EC50 [3] was 15.5 µM (active). The EC50 [4] was < 0.1 µM (active), the EC50 [5] was 5.79 µM (inconclusive) and the CC50 [6] was 16.5 µM (active). For the same compound, the EC50 [7] was 4.24 µM (active), the EC50 [8] was 8.49 µM (inconclusive) and the IC50 [9] was > 80 µM (inactive). For the same compound, the EC50 [10] was 0.428 µM (active), the AC50 [11] was 1.11 µM (active) and the AC50 [12] was 14.3 µM (active). For the same compound, the AC50 [13] was 1.28 µM (active).

For Cc1ccc(-c2cnn(-c3cccc([N+](=O)[O-])c3)c2N)cc1, the IC50 [14] was 23.7 µM (active), the IC50 [15] was 8.04 µM (active) and the IC50 [16] was > 100 µM (inactive). For the same compound, the IC50 [17] was > 100 µM (inactive).

For COc1ccc2[nH]c(C(=O)N/N=C/c3ccc(O)cc3O)cc2c1, the EC50 [2] was 12.2 µM (active), the EC50 [18] was 9.59 µM (active) and the EC50 [5] was 10.8 µM (active). The EC50 [7] was 10.1 µM (inconclusive), the EC50 [8] was 9.2 µM (inconclusive) and the AC50 [19] was 7.59 µM (active). For the same compound, the AC50 [20] was 20.3 µM (active) and the AC50 [21] was 0.694 µM (active).

For Oc1cnnc(N/N=C/c2ccccn2)n1, the EC50 [22] was 2.5 µM (inconclusive), the EC50 [2] was 7.32 µM (active) and the EC50 [18] was 7.62 µM (active). The EC50 [5] was 4.19 µM (active), the EC50 [23] was 1.26 µM (active) and the EC50 [24] was > 350 µM (not active). The EC50 [7] was 6.06 µM (active), the EC50 [8] was 6.35 µM (active) and the EC50 [10] was 0.798 µM (active). For the same compound, the AC50 [21] was 1.37 µM (active).

With CC(=O)NC(CC(C)C)C(=O)NC(Cc1ccccc1)C(=O)CCl (stereo not drawn) (Ac-Leu-Phe-CH2Cl; configuration not given here) the IC50 [25] was 3.63 µM (active) and the IC50 [26] was 1.04 µM (active).
